Results on 17 compounds are retold here after US8895571B2, “Isoindolinone and pyrrolopyridinone derivatives as Akt inhibitors” (Incyte Corporation, priority 2011, dated 2014).

What all share (type): biochemical
Experiment [1] addresses T1, Full length PKA (Homo sapiens, UniProt P17612).
T1 construct: Full length PKA (cat #P2912); purchased Invitrogen P2912
The experiment in a line: PKA in vitro enzymatic assay (HTRF). To be noted: 0.035 nM enzyme solution, substrate solution with 5 mM ATP, 25° C. 1 hr. The protocol: Full length PKA (cat #P2912), peptide substrate, fluorescein CREBtide peptide (cat #PV3508), Tb-Crebtide p-S133 Ab (cat #PV3566), and Lanthascreen TR-FRET Dilution Buffer stored (part # PV3574) were purchased from Invitrogen. In general, assay buffer conditions were chosen based on obtaining optimal and linear enzymatic activities. The assay buffer contains 50 mM HEPES, 10 mM MgCl2, 5 mM DTT, 0.005% Tween20 at pH 7.8. Compound stock (0.001 mM) was prepared in DMSO. The compound plate was prepared by 3-fold and 11-point serial dilutions. 0.5 μL of the compound in DMSO was transferred from the compound plate to the assay plate. 0.035 nM enzyme solution was prepared in the assay buffer. Note that the enzyme concentration given is based on the given stock concentration reported by the vendor. 0.1 μM substrate solution was prepared in the assay buffer with addition of 5 mM ATP. 10 μL of the enzyme solution was added to the assay plate and then 10 μL of substrate solution was added to the assay plate. The plate was protected from light and the reaction was incubated at 25° C. for 1 hr. The reaction was stopped by adding 10 μL of a solution containing 30 mM EDTA, and 1.5 nM Tb-Crebtide p-S133 Ab in 1× detection buffer. The plate was incubated for 15-30 min at room temperature and HTRF (homogenous time resolved fluorescence) was measured on a plate reader. Percentage of inhibition was calculated for each concentration and IC50 value was generated from curve fitting. See Table 8 for data related to compounds of the examples.
(In general: In TR-FRET formats the signal depends on donor and acceptor labels being close together.)

For experiment [2], the target named is T2, Full length Akt3 (Homo sapiens, UniProt Q9Y243).
T2 construct: Full length Akt1 (cat #P2999), Akt2 (cat #PV3184), Akt3 (cat #PV3185); purchased PerkinElmer PV3185
The experiment in a line: In vitro Akt kinase enzymatic assay (HTRF), Akt3. To be noted: 0.6 nM Akt3, substrate solution with 5 mM ATP, 25° C. 1 hr. The protocol:
(§1) Compounds herein were tested for inhibitory activity of Akt targets according to the following in vitro assay. Full length Akt1 (cat #P2999), Akt2 (cat #PV3184), Akt3 (cat #PV3185), peptide substrate, Ulight-Crosstide (cat #TRF0106-M), Ultra-Europium anti-phospho-Crosstide (cat #TRF-0202-M), and 10×LANCE detection buffer (cat #CR97-100) were purchased from PerkinElmer. In general, assay buffer conditions were chosen based on obtaining optimal enzymatic and linear activities. The assay buffer contains 50 mM HEPES, 10 mM MgCl2, 5 mM DTT, 0.005% Tween20 at pH 7.8. Compound stock (0.001 mM) was prepared in DMSO. The compound plate was prepared by 3-fold and 11-point serial dilutions. 0.5 μL of the compound in DMSO was transferred from the compound plate to the assay plate. Enzyme solution (0.4 nM of Akt1, 0.6 nM of Akt2 or 0.6 nM of Akt3) was prepared in the assay buffer. Note that the enzyme concentration given is based on the given stock concentration reported by the vendor. 0.1 μM substrate solution was prepared in the assay buffer with addition of 5 mM ATP. 10 μL of the enzyme solution was added to the assay plate and then 10 μL of substrate solution was added to the assay plate. The plate was protected from light and the reaction was incubated at 25° C. for 1 hr. The reaction was stopped by adding 10 μL of a solution containing 30 mM EDTA, and 3 nM Ultra Europium anti-phospho Crosstide in 1× detection buffer. The plate was incubated for 15-30 min at room temperature and HTRF (homogenous time resolved fluorescence) was measured on a plate reader. Percentage of inhibition was calculated for each concentration and IC50 value was generated from curve fitting. See Table 8 for data related to compounds of the examples.

In experiment [3] the target is T3, Full length Akt2 (Homo sapiens, UniProt P31751).
T3 construct: Full length Akt1 (cat #P2999), Akt2 (cat #PV3184); purchased PerkinElmer PV3184
The experiment in a line: In vitro Akt kinase enzymatic assay (HTRF), Akt2. The following applies: 0.6 nM Akt2, substrate solution with 5 mM ATP, 25° C. 1 hr. The protocol: as §1

Experiment [4] concerns the target T4, Full length Akt1 (Homo sapiens, UniProt P31749).
T4 construct: Full length Akt1 (cat #P2999); purchased PerkinElmer P2999
The experiment in a line: In vitro Akt kinase enzymatic assay (HTRF), Akt1. The following applies: 0.4 nM Akt1, substrate solution with 5 mM ATP, 25° C. 1 hr. The method, then:
as §1

pIC50: −log10 of the molar value.

T4 sequence (P31749 whole entry): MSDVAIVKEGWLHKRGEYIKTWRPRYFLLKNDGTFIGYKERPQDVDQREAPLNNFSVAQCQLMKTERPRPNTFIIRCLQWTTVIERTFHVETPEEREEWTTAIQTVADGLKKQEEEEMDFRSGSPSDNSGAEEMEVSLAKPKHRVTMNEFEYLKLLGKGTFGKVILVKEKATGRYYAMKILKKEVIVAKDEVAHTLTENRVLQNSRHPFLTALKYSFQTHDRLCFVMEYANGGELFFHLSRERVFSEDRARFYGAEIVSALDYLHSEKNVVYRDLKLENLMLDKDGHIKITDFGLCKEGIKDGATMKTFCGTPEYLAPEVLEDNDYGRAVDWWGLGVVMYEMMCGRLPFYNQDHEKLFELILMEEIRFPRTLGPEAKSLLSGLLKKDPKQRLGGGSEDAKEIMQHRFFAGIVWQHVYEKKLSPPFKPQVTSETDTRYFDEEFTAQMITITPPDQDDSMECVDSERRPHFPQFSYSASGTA
T3 sequence (P31751 whole entry): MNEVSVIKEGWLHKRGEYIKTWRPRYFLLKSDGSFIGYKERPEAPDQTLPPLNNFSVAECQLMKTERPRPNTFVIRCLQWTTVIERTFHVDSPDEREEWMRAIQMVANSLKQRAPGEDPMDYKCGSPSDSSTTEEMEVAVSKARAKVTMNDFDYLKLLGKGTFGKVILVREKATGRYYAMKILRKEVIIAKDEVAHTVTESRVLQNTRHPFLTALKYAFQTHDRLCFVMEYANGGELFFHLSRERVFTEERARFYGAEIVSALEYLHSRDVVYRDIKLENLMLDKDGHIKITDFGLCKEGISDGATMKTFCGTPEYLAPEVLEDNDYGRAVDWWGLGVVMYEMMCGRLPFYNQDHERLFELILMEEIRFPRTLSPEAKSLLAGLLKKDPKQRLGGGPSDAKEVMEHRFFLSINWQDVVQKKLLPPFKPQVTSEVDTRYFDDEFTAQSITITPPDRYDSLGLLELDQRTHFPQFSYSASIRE
T2 sequence (Q9Y243 whole entry): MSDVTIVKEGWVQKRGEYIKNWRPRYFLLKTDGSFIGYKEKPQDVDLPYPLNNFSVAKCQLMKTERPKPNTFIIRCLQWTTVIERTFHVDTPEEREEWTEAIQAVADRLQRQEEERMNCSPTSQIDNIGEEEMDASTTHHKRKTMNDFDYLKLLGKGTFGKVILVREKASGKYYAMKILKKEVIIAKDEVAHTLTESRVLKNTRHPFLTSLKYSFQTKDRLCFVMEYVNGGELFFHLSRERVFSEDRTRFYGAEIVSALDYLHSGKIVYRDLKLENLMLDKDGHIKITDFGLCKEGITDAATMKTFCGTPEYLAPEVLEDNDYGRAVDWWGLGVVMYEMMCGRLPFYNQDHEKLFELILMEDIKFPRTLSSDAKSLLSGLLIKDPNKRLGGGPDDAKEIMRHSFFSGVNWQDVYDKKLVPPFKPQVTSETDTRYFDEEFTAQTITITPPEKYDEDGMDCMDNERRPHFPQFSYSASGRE

Broadly, the pIC50 is the negative decadic logarithm of the IC50, by convention in mol/L. A higher pIC50 goes with a small IC50. Regarding `Cn1ncc(-c2cccs2)c1-c1ccc2c(c1)CN([C@H](CN)Cc1cccc(F)c1)C2=O` [Example 15, 2-[(1S)-2-amino-1-(3-fluorobenzyl)ethyl]-5-[1-methyl-4-(2-thienyl)-1H-pyrazol-5-yl]isoindolin-1-one], the pIC50 in experiment [1] is below 5.30; in experiment [2] it was above 6.30; in experiment [3], below 5.30; in experiment [4], 5.30 to 6.30.
In the case of `COc1ccc(-c2cnn(C)c2-c2ccc3c(c2)CN([C@H](CN)Cc2cccc(F)c2)C3=O)cn1` [Example 28, 2-[(1S)-2-amino-1-(3-fluorobenzyl)ethyl]-5-[4-(6-methoxypyridin-3-yl)-1-methyl-1H-pyrazol-5-yl]isoindolin-1-one], the pIC50 in experiment [1] is below 5.30; in experiment [2], below 5.30; in experiment [3], below 5.30; in experiment [4], 5.30 to 6.30.
Turning to `Cn1ncc(Cl)c1-c1ccc2c(n1)CN([C@H](CN)Cc1cccc(F)c1)C2=O` [Example 109, 6-[(1S)-2-amino-1-(3-fluorobenzyl)ethyl]-2-(4-chloro-1-methyl-1H-pyrazol-5-yl)-6,7-dihydro-5H-pyrrolo[3,4-b]pyridin-5-one], the pIC50 in experiment [1] is below 5.30; in experiment [2], 5.30 to 6.30; in experiment [3], 5.30 to 6.30; in experiment [4], above 6.30.
In the case of `COc1cccc(C(CN)N2Cc3cc(-c4c(Cl)cnn4C)ccc3C2=O)c1` (centres unmarked) [Example 125, 2-[2-amino-1-(3-methoxyphenyl)ethyl]-5-(4-chloro-1-methyl-1H-pyrazol-5-yl)isoindolin-1-one], the pIC50 was below 5.30 in experiment [1], 5.30 to 6.30 in experiment [2], 5.30 to 6.30 in experiment [3] and above 6.30 in experiment [4].
Consider `CN1CCC(NC[C@H](Cc2cccc(F)c2)N2Cc3cc(-c4c(Cl)cnn4C)ccc3C2=O)CC1` [Example 37, 5-(4-chloro-1-methyl-1H-pyrazol-5-yl)-2-{(1S)-1-(3-fluorobenzyl)-2-[(1-methylpiperidin-4-yl)amino]ethyl}isoindolin-1-one], for which the pIC50 is below 5.30 in experiment [1], 5.30 to 6.30 in experiment [2], 5.30 to 6.30 in experiment [3] and above 6.30 in experiment [4].
With `COc1cc(C[C@@H](CN)N2Cc3cc(-c4c(Cl)cnn4C)ccc3C2=O)ccn1` [Example 64, 2-{(1S)-2-amino-1-[(2-methoxypyridin-4-yl)methyl]ethyl}-5-(4-chloro-1-methyl-1H-pyrazol-5-yl)isoindolin-1-one], the pIC50 is below 5.30 in experiment [1], below 5.30 in experiment [2], below 5.30 in experiment [3] and 5.30 to 6.30 in experiment [4].
Consider `Cn1ncc(Cl)c1-c1ccc2c(c1)CN(C(CN)c1ccc(F)cc1)C2=O` (centres unmarked) [Example 124, 2-[2-amino-1-(4-fluorophenyl)ethyl]-5-(4-chloro-1-methyl-1H-pyrazol-5-yl)isoindolin-1-one], for which the pIC50 in experiment [1] is below 5.30; in experiment [2] it was 5.30 to 6.30; in experiment [3], 5.30 to 6.30; in experiment [4], 5.30 to 6.30.
Consider `Cn1ncc(-c2ccc(F)nc2)c1-c1ccc2c(c1)CN([C@H](CN)Cc1cccc(F)c1)C2=O` [Example 25, 2-[(1S)-2-amino-1-(3-fluorobenzyl)ethyl]-5-[4-(6-fluoropyridin-3-yl)-1-methyl-1H-pyrazol-5-yl]isoindolin-1-one], for which the pIC50 in experiment [1], in experiment [2], in experiment [3] and in experiment [4] was below 5.30 throughout.
As to `CCSCc1cnn(C)c1-c1cc2c(cn1)C(=O)N([C@H](CN)Cc1cccc(F)c1)C2` [Example 98, 2-[(1S)-2-amino-1-(3-fluorobenzyl)ethyl]-6-[4-(ethylthiomethyl)-1-methyl-1H-pyrazol-5-yl]-1,2-dihydro-3H-pyrrolo[3,4-c]pyridin-3-one], the pIC50 is below 5.30 in experiment [1], 5.30 to 6.30 in experiment [2], below 5.30 in experiment [3] and 5.30 to 6.30 in experiment [4].
`Cn1ncc(-c2cncnc2)c1-c1ccc2c(c1)CN([C@H](CN)Cc1cccc(F)c1)C2=O` [Example 23, 2-[(1S)-2-amino-1-(3-fluorobenzyl)ethyl]-5-(1-methyl-4-pyrimidin-5-yl-1H-pyrazol-5-yl)isoindolin-1-one]: the pIC50 in experiment [1], in experiment [2], in experiment [3] and in experiment [4] was below 5.30 throughout.
Regarding `CN(C)CC(c1ccccc1)N1Cc2cc(-c3c(Cl)cnn3C)ccc2C1=O` (centres unmarked) [Example 121, 5-(4-chloro-1-methyl-1H-pyrazol-5-yl)-2-[2-(dimethyl-amino)-1-phenylethyl]iso-indolin-1-one], the pIC50 in experiment [1], in experiment [2], in experiment [3] and in experiment [4] was below 5.30 throughout.
Take `Cn1ncc(-c2ccccc2)c1-c1ccc2c(c1)CN([C@H](CN)Cc1cccc(F)c1)C2=O` [Example 14, 2-[(1S)-2-amino-1-(3-fluorobenzyl)ethyl]-5-(4-phenyl-1-methyl-1H-pyrazol-5-yl)isoindolin-1-one]: the pIC50 is below 5.30 in experiment [1], above 6.30 in experiment [2], 5.30 to 6.30 in experiment [3] and 5.30 to 6.30 in experiment [4].
With `Cn1ncc(-c2cccnc2F)c1-c1ccc2c(c1)CN([C@H](CN)Cc1cccc(F)c1)C2=O` [Example 24, 2-[(1S)-2-amino-1-(3-fluorobenzyl)ethyl]-5-[4-(2-fluoropyridin-3-yl)-1-methyl-1H-pyrazol-5-yl]isoindolin-1-one], the pIC50 in experiment [1], in experiment [2], in experiment [3] and in experiment [4] was below 5.30 each time.
On to `Cn1nccc1-c1ccc2c(n1)CN([C@H](CN)Cc1ccccc1)C2=O` [Example 111, 6-[(1S)-2-amino-1-benzylethyl]-2-(1-methyl-1H-pyrazol-5-yl)-6,7-dihydro-5H-pyrrolo[3,4-b]pyridin-5-one], for which the pIC50 is below 5.30 in experiment [1], below 5.30 in experiment [2], 5.30 to 6.30 in experiment [3] and 5.30 to 6.30 in experiment [4].
As to `CSCc1cnn(C)c1-c1cc2c(cn1)C(=O)N([C@H](CN)Cc1cccc(F)c1)C2` [Example 99, 2-[(1S)-2-amino-1-(3-fluorobenzyl)ethyl]-6-[4-(methylthiomethyl)-1-methyl-1H-pyrazol-5-yl]-1,2-dihydro-3H-pyrrolo[3,4-c]pyridin-3-one], the pIC50 in experiment [1] is below 5.30; in experiment [2], 5.30 to 6.30; in experiment [3] it was 5.30 to 6.30; in experiment [4], above 6.30.
As to `Cn1ncc(Cl)c1-c1ccc2c(c1)CN(C(CN)c1cccc(F)c1)C2=O` (centres unmarked) [Example 123, 2-[2-amino-1-(3-fluorophenyl)ethyl]-5-(4-chloro-1-methyl-1H-pyrazol-5-yl)isoindolin-1-one], the pIC50 in experiment [1] was 5.30 to 6.30; in experiment [2], 5.30 to 6.30; in experiment [3], 5.30 to 6.30; in experiment [4] it was above 6.30.
As for `Cn1ncc(-c2ccncc2)c1-c1ccc2c(c1)CN([C@H](CN)Cc1cccc(F)c1)C2=O` [Example 18, 2-[(1S)-2-amino-1-(3-fluorobenzyl)ethyl]-5-(1-methyl-4-pyridin-4-yl-1H-pyrazol-5-yl)isoindolin-1-one], the pIC50 is below 5.30 in experiment [1], 5.30 to 6.30 in experiment [2], below 5.30 in experiment [3] and below 5.30 in experiment [4].
